This test concerns the target T1, crosslinked smooth muscle actomyosin (chicken gizzard smooth muscle myosin subfragment-1 crosslinked to cardiac or skeletal actin) (Gallus gallus, UniProt P10587).
T1 construct: chicken gizzard smooth muscle myosin subfragment-1; from tissue; host or cells: chicken gizzard
The experiment in a line: Lead optimization pyruvate kinase/horseradish peroxidase/pyruvate oxidase-coupled ATPase assay (compound dose response). To be noted: read-out: IC50 Arithmetic Mean. It counts as biochemical. As for the experimental part:
Screening assays were performed using a pyruvate kinase and lactate dehydrogenase-coupled ATPase assay containing the following reagents: Potassium PIPES (50 mM), MgCl2 (3 mM), KCl (100 mM), ATP (0.15 mM), DTT (1 mM), BSA (0.1 mg/ml), NADH (0.5 mM), PEP (1.5 mM), pyruvate kinase (4 U/ml), lactate dehydrogenase (8 U/ml), and antifoam (50 ppm) (concentrations expressed are final assay concentrations). The pH was adjusted to 6.80 at 22° C. by addition of potassium hydroxide. Lead optimization assays were performed with a more sensitive pyruvate kinase/horseradish peroxidase/pyruvate oxidase-coupled ATPase assay containing the following reagents: Potassium PIPES (12 mM), MgCl2 (2 mM), KCl (100 mM), ATP (0.15 mM), BSA (0.05 mg/ml), potassium phosphate (2 mM), amplex red (0.1 mM), PEP (0.1 mM), pyruvate kinase (4 U/ml), horseradish peroxidase (0.5 U/ml), pyruvate oxidase (0.5 U/ml), and antifoam (50 ppm) (concentrations expressed are final assay concentrations). The pH was adjusted to 7.00 at 22° C. by addition of potassium hydroxide.
The protein components specific to this assay are chicken gizzard smooth muscle myosin subfragment-1 that has been chemically crosslinked to either cardiac or skeletal actin using an excess of 1-Ethyl-3-[3-dimethylaminopropyl]carbodiimide hydrochloride and N-hydroxysuccinimide. The exact concentration of the crosslinked smooth muscle myosin in the assay is determined empirically, by titration to achieve a desired rate of ATP hydrolysis. The concentration varies between protein preparations due to variations in the fraction of active molecules in each preparation.
Compound dose response assays are performed by first preparing a dilution series of test compound, each with an assay mixture containing potassium PIPES, MgCl2, KCl, ATP, BSA, potassium phosphate, amplex red, PEP, crosslinked smooth muscle actomyosin (subfragment-1), antifoam, and water. The assay is started by adding an equal volume of solution containing potassium Pipes, MgCl2, KCl, BSA, potassium phosphate, pyruvate kinase, horseradish peroxidase, pyruvate oxidase, antifoam, and water. ATP hydrolysis is monitored by measuring the fluorescence of amplex red (excitation at 480 nm, emission at 615 nm). The resulting dose response curve is fit by the 4 parameter equation y=Bottom+((Top-Bottom)/(1+((IC50/X)^Hill))). The IC50 is defined as the concentration at which ATPase activity is midway between the top and bottom of the dose response curve.

As usually defined, the IC50 is the point on the concentration scale where inhibition reaches its midpoint.

For the molecule `CCc1ccc(NC(=O)OCC2(C(=O)NCc3ccccc3Cl)CCCN(C(=O)[C@@H](N)CO)C2)cc1` (stereo partly drawn) [(1-((2S)-2-amino-3-hydroxypropanoyl)-3-{[N-(4-ethylphenyl)carbamoyloxy]methyl}(3-piperidyl))-N-[(2-chlorophenyl)methyl]carboxamide], the IC50 turned out to be 1480 nM. Then `CCc1ccc(NC(=O)OCC2(C(=O)NCc3ccccc3Cl)CCN(C(=O)[C@@H](N)CO)CC2)cc1` [(1-((2S)-2-amino-3-hydroxypropanoyl)-4-{[N-(4-ethylphenyl)carbamoyloxy]methyl}(4-piperidyl))-N-[(2-chlorophenyl)methyl]carboxamide], with 125 nM.

As for `CCc1ccc(NC(=O)OCC2(C(=O)NCc3ccccc3Cl)CCN(C(=O)[C@H](C)N)CC2)cc1` [(1-((2S)-2-aminopropanoyl)-4-{[N-(4-ethylphenyl)carbamoyloxy]methyl}(4-piperidyl))-N-[(2-chlorophenyl)methyl]carboxamide], the concentration for half-maximal inhibition (IC50) stood at 724 nM. Then `CCc1ccc(NC(=O)OCC2(C(=O)NCc3ccccc3Cl)CCN(C(=O)C3CCN3)CC2)cc1` (stereo not shown) [(1-(azetidin-2-ylcarbonyl)-4-{[N-(4-ethylphenyl)carbamoyloxy]methyl}(4-piperidyl))-N-[(2-chlorophenyl)methyl]carboxamide], with 221 nM; and `CCc1ccc(NC(=O)OCC2(C(=O)NCc3ccccc3Cl)CCN(S(=O)(=O)CCN)CC2)cc1` [(1-[(2-aminoethyl)sulfonyl]-4-{[N-(4-ethylphenyl)carbamoyloxy]methyl}(4-piperidyl))-N-[(2-chlorophenyl)methyl]carboxamide], with 274 nM; and `CCc1ccc(NC(=O)OCC2(C(=O)NCc3ccccc3Cl)CCN(C(C)=O)CC2)cc1` [(1-acetyl-4-{[N-(4-ethylphenyl)carbamoyloxy]methyl}(4-piperidyl))-N-[(2-chlorophenyl)methyl]carboxamide], with 418 nM.

On to `CCc1ccc(NC(=O)OCC2(C(=O)NCc3ccccc3C#N)CCN(C(=O)CNC(=O)OC(C)(C)C)CC2)cc1` [(1-{2-[(tert-butoxy)carbonylamino]acetyl}-4-{[N-(4-ethylphenyl)carbamoyloxy]methyl}(4-piperidyl))-N-[(2-cyanophenyl)methyl]carboxamide], for which the IC50 was found to be 7690 nM. Regarding `CCc1ccc(NC(=O)OCC2(C(=O)NCc3ccccc3OC)CCN(C(=O)CNC(=O)OC(C)(C)C)CC2)cc1` [(1-{2-[(tert-butoxy)carbonylamino]acetyl}-4-{[N-(4-ethylphenyl)carbamoyloxy]methyl}(4-piperidyl))-N-[(2-methoxyphenyl)methyl]carboxamide], the IC50 came out at 11300 nM. Turning to `CCc1ccc(NC(=O)NC[C@@H]2CCCN2C(=O)OCc2ccccc2Cl)cc1` [(2-chlorophenyl)methyl (2S)-2-({[(4-ethylphenyl)amino]carbonylamino}methyl)pyrrolidinecarboxylate], the IC50 worked out at 3530 nM.

Take `CCc1ccc(NC(=O)OCCOC(=O)NCc2ccccc2Cl)cc1` [(2-{N-[(2-chlorophenyl)methyl]carbamoyloxy}ethoxy)-N-(4-ethylphenyl)carboxamide]: the concentration for half-maximal inhibition (IC50) came to 3690 nM. Turning to `CCc1ccc(NC(=O)OCC2CN(C(=O)CN)CCN2C(=O)NCc2ccccc2Cl)cc1` (stereo not shown) [(4-(2-aminoacetyl)-2-{[N-(4-ethylphenyl)carbamoyloxy]methyl}piperazinyl)-N-[(2-chlorophenyl)methyl]carboxamide], the IC50 is 2380 nM. Then `CCc1ccc(NC(=O)N2CCN(C(=O)CN)C(C(=O)NCc3ccccc3Cl)C2)cc1` (stereo not shown) [(4-(2-aminoacetyl)-3-{N-[(2-chlorophenyl)methyl]carbamoyl}piperazinyl)-N-(4-ethylphenyl)carboxamide], with 15200 nM. Then `Cc1ccc(NC(=O)OCC2(C(=O)NCc3ccccc3Cl)CCOCC2)c(C)c1` [(4-{[N-(2,4-dimethylphenyl)carbamoyloxy]methyl}(2H-3,4,5,6-tetrahydropyran-4-yl))-N-[(2-chlorophenyl)methyl]carboxamide], with 1260 nM.

The values are drawn from US8071625B2, “Certain chemical entities, compositions, and methods” (Cytokinetics, Inc., priority 2006, dated 2011).
